Laboratory results: patent US11214803B2, “Modulators of YAP1 expression” (Ionis Pharmaceuticals, Inc., priority 2019, dated 2022)
pIC50: −log10 of the molar value. Strand notation (5' to 3'): a small letter for the sugar, then the base; units joined by * are phosphorothioate-linked, units joined directly phosphodiester-linked; [ ] holds rarer units or linkages, { } end groups; capitals alone tell only the bases. k = constrained ethyl (cEt); [5mC] = 5-methylcytosine; d = 2'-deoxy (DNA)

Columns and labels:
Yap1 mRNA = assay: Dose-dependent inhibition of human Yap1 in A-431 cells (Example 7, 10,000 cells per well, RTS36584); assay type: cell-based; conditions: free uptake; for Yap1 mRNA, % UTC: A-431 cells 10,000 cells per well, 48 hours
Outline: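 A-431 cells at 10,000 per well received modified oligonucleotides by free uptake at several doses. After about 48 hours, Yap1 mRNA was quantified with primer-probe set RTS36584, normalized to RIBOGREEN total RNA and expressed as % untreated control. IC50 came from linear regression on a log/linear plot.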

[1] = Tolerability in Balb/c mice, plasma chemistry markers (Example 14); assay type: in vivo; conditions: male Balb/c mice, 50 mg/kg s.c. twice a week for four weeks (8 treatments), day 27
Procedure: (§1) Balb/c mice were treated with modified oligonucleotides selected from studies described above and evaluated for changes in the levels of various plasma chemistry markers.
(§2) Groups of male Balb/c mice at 5-6 weeks of age (obtained from Taconic) were injected subcutaneously twice a week for four weeks (for a total of 8 treatments) with 50 mg/kg of modified oligonucleotides. One group of male Balb/c mice was injected with PBS. Mice were euthanized on day 27 post start of treatment (24 hours following the final administration).

[2] = Tolerability in Balb/c mice, body and organ weights (Example 14); assay type: in vivo; conditions: male Balb/c mice, 50 mg/kg s.c. twice a week for four weeks (8 treatments); for Kidney weight / Liver weight / Spleen weight: end of study (day 27); for body weight: measured on day 25
Procedure: Groups of male Balb/c mice at 5-6 weeks of age (obtained from Taconic) were injected subcutaneously twice a week for four weeks (for a total of 8 treatments) with 50 mg/kg of modified oligonucleotides. One group of male Balb/c mice was injected with PBS. […]
Modified oligonucleotides that caused any changes in organ weights outside the expected range for modified oligonucleotides were excluded from further studies.

[3] = Tolerability in Balb/c mice, plasma chemistry markers (Example 10); assay type: in vivo; conditions: male Balb/c mice, 50 mg/kg subcutaneously twice a week for four weeks, day 26
Procedure: as §1
as §2, with “4-6” for “5-6”, “26” for “27”

[4] = Tolerability in Balb/c mice, body and organ weights (Example 10); assay type: in vivo; conditions: 50 mg/kg subcutaneously twice a week for four weeks, end of study
Procedure: as §2, with “4-6” for “5-6”, “26” for “27”
Body weights of Balb/c mice were measured at the end of the study, and the average body weight for each group is presented in the table below. Modified oligonucleotides that caused any changes in organ weights outside the expected range for modified oligonucleotides were excluded from further studies.

[5] = test system: subcutaneous DEN carcinomas; assay: Tumor volume in DEN-HCC model, in combination with a-PD1 antibody (Example 49); assay type: in vivo, C57BL/6 mice; conditions: DEN-HCC subcutaneous model, C57BL/6 mice
Procedure: N-nitrosodiethylamine (DEN) is administered at 25 mg/kg into 15 day old C57/BL6 mice. Carcinomas form 6 months post injection. After formation, carcinomas were then dissected from the liver and passaged subcutaneously into C57BL/6 male mice at 4-6 weeks of age to establish a subcutaneous model. For this experiment, mice were passaged with P8 subcutaneously established DEN carcinomas, rendering P9 for the duration of the experiment. Subcutaneous carcinomas are found to form at 4-6 weeks post implantation. Modified oligonucleotides 792169 (control compound) and 715491 (YAP-1 targeting modified oligonucleotide) were treated subcutaneously into groups of 7-8 mice at 10 mg/kg/week 5 times a week for 11 weeks (total of 55 doses). The PBS-only treated group and the control group were treated 5 times a week for 4 weeks (total of 20 doses). α-PD1 antibody (BioXCell) was treated intraperitoneally at 10 mg/kg/week twice a week for 4 weeks (total of 8 doses). F.D. refers to mice that were sacrificed because their tumor volume became too large.

[6] = Table 58, A-431 cells 10,000 cells per well
[7] = Table 56, A-431 cells 10,000 cells per well
[8] = Table 61, A-431 cells 10,000 cells per well

958497 (kA*kT*kA*dT*dG*dG*dA*dA*dA*dT*dT*dG*dT*k[5mC]*kT*k[5mC]) [compound 958497]
Yap1 mRNA, % UTC (Yap1 mRNA; Table 58, 15.6 nM): 82 % UTC
Yap1 mRNA, % UTC (Yap1 mRNA; Table 58, 62.5 nM): 35 % UTC
Yap1 mRNA, % UTC (Yap1 mRNA; Table 58, 4000.00 nM): 3 % UTC
pIC50 (Yap1 mRNA; [6]): 7.00
ALT [1]: 46 U/L
AST [1]: 151 U/L
BUN [1]: 26 mg/dL
TBIL [1]: 0.24 mg/dL
Kidney weight [2]: 0.35 g
Liver weight [2]: 1.31 g
Spleen weight [2]: 0.11 g
body weight [2]: 23 g

958596 (kA*kG*k[5mC]*dA*dG*dT*dT*dA*dA*dG*d[5mC]*dA*d[5mC]*kT*kT*kT; antisense) [compound 958596]
Yap1 mRNA, % UTC (Yap1 mRNA; Table 56, 15.6 nM): 69 % UTC
Yap1 mRNA, % UTC (Yap1 mRNA; Table 56, 62.5 nM): 38 % UTC
Yap1 mRNA, % UTC (Yap1 mRNA; Table 56, 4000.00 nM): 7 % UTC
pIC50 (Yap1 mRNA; [7]): 7.40
ALT [1]: 207 U/L
AST [1]: 162 U/L
BUN [1]: 24 mg/dL
TBIL [1]: 0.23 mg/dL
Kidney weight [2]: 0.36 g
Liver weight [2]: 2.11 g
Spleen weight [2]: 0.13 g
body weight [2]: 25 g

958622 (kG*kA*kT*dA*dT*dT*d[5mC]*d[5mC]*dG*d[5mC]*dA*dT*dT*kG*k[5mC]*k[5mC]; antisense) [compound 958622]
Yap1 mRNA, % UTC (Yap1 mRNA; Table 58, 15.6 nM): 79 % UTC
Yap1 mRNA, % UTC (Yap1 mRNA; Table 58, 62.5 nM): 50 % UTC
Yap1 mRNA, % UTC (Yap1 mRNA; Table 58, 4000.00 nM): 7 % UTC
pIC50 (Yap1 mRNA; [6]): 7.00
ALT [1]: 224 U/L
AST [1]: 254 U/L
BUN [1]: 23 mg/dL
TBIL [1]: 0.24 mg/dL
Kidney weight [2]: 0.33 g
Liver weight [2]: 0.92 g
Spleen weight [2]: 0.12 g
body weight [2]: 23 g

958589 (kG*kT*kA*dA*dA*dG*dG*dA*dA*dG*dA*dT*d[5mC]*kT*k[5mC]*k[5mC]; antisense) [compound 958589]
Yap1 mRNA, % UTC (Yap1 mRNA; Table 61, 15.6 nM): 75 % UTC
Yap1 mRNA, % UTC (Yap1 mRNA; Table 61, 62.5 nM): 50 % UTC
Yap1 mRNA, % UTC (Yap1 mRNA; Table 61, 4000.00 nM): 8 % UTC
pIC50 (Yap1 mRNA; [8]): 7.00
ALT [1]: 35 U/L
AST [1]: 66 U/L
BUN [1]: 24 mg/dL
TBIL [1]: 0.21 mg/dL
Kidney weight [2]: 0.37 g
Liver weight [2]: 1.40 g
Spleen weight [2]: 0.10 g
body weight [2]: 25 g

958534 (kT*kT*k[5mC]*dA*dG*d[5mC]*dA*dT*dA*dG*dA*dA*dG*kT*kA*kG; antisense) [compound 958534]
Yap1 mRNA, % UTC (Yap1 mRNA; Table 61, 15.6 nM): 85 % UTC
Yap1 mRNA, % UTC (Yap1 mRNA; Table 61, 62.5 nM): 48 % UTC
Yap1 mRNA, % UTC (Yap1 mRNA; Table 61, 4000.00 nM): 9 % UTC
pIC50 (Yap1 mRNA; [8]): 7.00
ALT [1]: 1962 U/L
AST [1]: 1617 U/L
BUN [1]: 26 mg/dL
TBIL [1]: 0.33 mg/dL
Kidney weight [2]: 0.32 g
Liver weight [2]: 1.81 g
Spleen weight [2]: 0.09 g
body weight [2]: 22 g

958739 (kA*kG*k[5mC]*dA*dA*dT*dA*dG*dA*dG*dT*dA*dA*k[5mC]*k[5mC]*kA; antisense) [compound 958739]
Yap1 mRNA, % UTC (Yap1 mRNA; Table 61, 15.6 nM): 77 % UTC
Yap1 mRNA, % UTC (Yap1 mRNA; Table 61, 62.5 nM): 46 % UTC
Yap1 mRNA, % UTC (Yap1 mRNA; Table 61, 4000.00 nM): 7 % UTC
pIC50 (Yap1 mRNA; [8]): 7.00
ALT [1]: 145 U/L
AST [1]: 186 U/L
BUN [1]: 21 mg/dL
TBIL [1]: 0.21 mg/dL
Kidney weight [2]: 0.36 g
Liver weight [2]: 1.58 g
Spleen weight [2]: 0.13 g
body weight [2]: 24 g

715491 (kA*kA*k[5mC]*d[5mC]*dA*dA*d[5mC]*dT*dA*dT*dT*dA*d[5mC]*kT*kT*k[5mC]) [compound 715491]
Yap1 mRNA, % UTC (Yap1 mRNA; Table 56, 15.6 nM): 92 % UTC
Yap1 mRNA, % UTC (Yap1 mRNA; Table 56, 62.5 nM): 83 % UTC
Yap1 mRNA, % UTC (Yap1 mRNA; Table 56, 4000.00 nM): 28 % UTC
pIC50 (Yap1 mRNA; [7]): 6.57
ALT (U/L) [3]: 33 U/L
AST (U/L) [3]: 48 U/L
TBIL [3]: 0.11 mg/dL
Kidney weight [4]: 0.32 g
Liver weight [4]: 1.03 g
Spleen weight [4]: 0.12 g
body weight [4]: 22 g
Average Tumor Volume ([5]; day 1 on treatment): 356 mm3
Average Tumor Volume ([5]; day 5 on treatment): 417 mm3
Average Tumor Volume ([5]; day 8 on treatment): 463 mm3
Average Tumor Volume ([5]; day 11 on treatment): 461 mm3
Average Tumor Volume ([5]; day 15 on treatment): 523 mm3
Average Tumor Volume ([5]; day 18 on treatment): 526 mm3
Average Tumor Volume ([5]; day 23 on treatment): 658 mm3
Average Tumor Volume ([5]; day 25 on treatment): 659 mm3
Average Tumor Volume ([5]; day 28 on treatment): 661 mm3
Average Tumor Volume ([5]; day 31 on treatment): 740 mm3
Average Tumor Volume ([5]; day 35 on treatment): 798 mm3
Average Tumor Volume ([5]; day 38 on treatment): 741 mm3
Average Tumor Volume ([5]; day 43 on treatment): 723 mm3
Average Tumor Volume ([5]; day 45 on treatment): 741 mm3
Average Tumor Volume ([5]; day 49 on treatment): 765 mm3
Average Tumor Volume ([5]; day 54 on treatment): 780 mm3
Average Tumor Volume ([5]; day 58 on treatment): 852 mm3
Average Tumor Volume ([5]; day 61 on treatment): 925 mm3
Average Tumor Volume ([5]; day 65 on treatment): 896 mm3
Average Tumor Volume ([5]; day 68 on treatment): 940 mm3
Average Tumor Volume ([5]; day 72 on treatment): 953 mm3
Average Tumor Volume ([5]; day 75 on treatment): 985 mm3
Average Tumor Volume ([5]; day 79 on treatment): 960 mm3
